Measured values published in PMC9571547, “New Triazinoindole Bearing Benzimidazole/Benzoxazole Hybrids Analogs as Potent Inhibitors of Urease: Synthesis, In Vitro Analysis and Molecular Docking Studies” (Molecules, 2022).
Read-outs that look alike come from different tables or passages of the source.

Target: urease enzyme (Canavalia ensiformis, UniProt P07374)
Test: biochemical
Type: biochemical
Conditions: for potency relative to standard thiourea drug (fold): urease inhibition, compared to thiourea
Experimental: First, 5 μL of the test compounds were added to the reaction mixtures, which also contained 25 μL of enzyme solution and 55 μL of buffer containing 100 mM urea, then the mixtures were incubated in 96-well plates at 30 °C for 15 min (0.5 mM concentration). For the kinetics analysis, urea concentrations were changed from 2 to 24 mM. Urease activity was determined by measuring ammonia generation using Weatherburn’s indophenol method. In a nutshell, each well received 45 μL of the 0.005% w/v sodium nitroprusside, phenol reagent 1% w/v phenol, and 70 μL of the alkali reagent—0.1% active chloride NaOCl and 0.5% w/v NaOH. Using a microplate reader, rising absorbance at 630 nm was observed after 50 min (Molecular Devices, San Jose, CA, USA). In a final volume of 200 μL, each reaction was carried out three times. Using the software SoftMaxPro, the results (change in absorbance per minute) were processed (Molecular Devices, San Jose, CA, USA). The experiments were run at pH 6.8 throughout. The formula 100-(ODtest well/ODcontrol) 100 was used to calculate the percentage of inhibition.

urease enzyme, sequence (P07374 whole entry, looked up): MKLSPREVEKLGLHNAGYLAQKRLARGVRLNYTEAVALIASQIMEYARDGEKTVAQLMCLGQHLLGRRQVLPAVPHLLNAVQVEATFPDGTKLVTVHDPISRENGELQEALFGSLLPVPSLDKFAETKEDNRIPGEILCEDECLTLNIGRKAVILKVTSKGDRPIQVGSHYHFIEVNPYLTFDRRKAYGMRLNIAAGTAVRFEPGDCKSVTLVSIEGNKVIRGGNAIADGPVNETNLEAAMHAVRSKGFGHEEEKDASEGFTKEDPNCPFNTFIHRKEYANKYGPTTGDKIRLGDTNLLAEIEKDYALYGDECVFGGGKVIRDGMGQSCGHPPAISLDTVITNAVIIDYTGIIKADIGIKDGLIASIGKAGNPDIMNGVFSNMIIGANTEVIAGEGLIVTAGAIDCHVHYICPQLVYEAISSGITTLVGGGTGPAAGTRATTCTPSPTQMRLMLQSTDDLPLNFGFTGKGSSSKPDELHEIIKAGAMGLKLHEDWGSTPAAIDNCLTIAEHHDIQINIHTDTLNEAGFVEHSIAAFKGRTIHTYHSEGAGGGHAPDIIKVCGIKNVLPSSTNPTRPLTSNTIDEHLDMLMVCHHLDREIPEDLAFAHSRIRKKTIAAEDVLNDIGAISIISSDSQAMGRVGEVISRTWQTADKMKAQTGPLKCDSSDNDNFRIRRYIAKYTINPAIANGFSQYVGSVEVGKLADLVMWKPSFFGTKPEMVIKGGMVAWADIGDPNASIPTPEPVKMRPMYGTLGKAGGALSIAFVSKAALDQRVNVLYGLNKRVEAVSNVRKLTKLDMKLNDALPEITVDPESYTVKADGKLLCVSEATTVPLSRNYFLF

Row | Compound | IC50 | potency relative to standard thiourea drug (fold) | IC50 (in vitro, pH 6.8, 30 °C, 100 mM urea, thiourea as standard, read-out: IC50 ± SEM against the urease enzyme)
1 | Cc1ccc(C(=O)n2c3ccc([N+](=O)[O-])cc3c3nnc(SCc4nc5ccccc5o4)nc32)cc1 [analog 16] | 28.2 ± 0.5 µM |  | 
2 | O=C(c1ccc(O)cc1)n1c(CSc2nnc3c4cc([N+](=O)[O-])ccc4n(C(=O)c4ccc(O)cc4)c3n2)nc2ccccc21 [analog 12] | 14.6 ± 0.3 µM |  | 
3 | Cc1cccc(C(=O)n2c3ccc([N+](=O)[O-])cc3c3nnc(SCc4nc5ccccc5o4)nc32)c1 [analog 19] | 34.9 ± 0.7 µM |  | 
4 | O=C(c1ccc(O)c(O)c1)n1c(CSc2nnc3c4cc([N+](=O)[O-])ccc4n(C(=O)c4ccc(O)c(O)c4)c3n2)nc2ccccc21 [analog 5] | 0.9 ± 0.01 µM |  | 
5 | O=C(c1ccc(O)cc1O)n1c(CSc2nnc3c4cc([N+](=O)[O-])ccc4n(C(=O)c4ccc(O)cc4O)c3n2)nc2ccccc21 [analog 2] | 1.9 ± 0.1 µM |  | 
6 | O=C(c1ccc([N+](=O)[O-])cc1)n1c(CSc2nnc3c4cc([N+](=O)[O-])ccc4n(C(=O)c4ccc([N+](=O)[O-])cc4)c3n2)nc2ccccc21 [analog 1] | 17.6 ± 0.3 µM |  | 
7 | COc1ccc(C(=O)n2c3ccc([N+](=O)[O-])cc3c3nnc(SCc4nc5ccccc5o4)nc32)c(OC)c1 [analog 21] | 31.8 ± 0.5 µM |  | 
8 | O=C(c1cc(O)ccc1O)n1c(CSc2nnc3c4cc([N+](=O)[O-])ccc4n(C(=O)c4cc(O)ccc4O)c3n2)nc2ccccc21 [analog 6] | 6.7 ± 0.2 µM |  | 
9 | O=C(c1cccc(O)c1)n1c(CSc2nnc3c4cc([N+](=O)[O-])ccc4n(C(=O)c4cccc(O)c4)c3n2)nc2ccccc21 [analog 7] | 18.9 ± 0.4 µM |  | 
10 | COc1ccc(C(=O)n2c3ccc([N+](=O)[O-])cc3c3nnc(SCc4nc5ccccc5o4)nc32)cc1O [analog 20] | 2.7 ± 0.1 µM |  | 
11 | O=C(c1cccc(F)c1)n1c2ccc([N+](=O)[O-])cc2c2nnc(SCc3nc4ccccc4o3)nc21 [analog 24] | 1.6 ± 0.01 µM |  | 
12 | O=C(c1cccc(O)c1O)n1c2ccc([N+](=O)[O-])cc2c2nnc(SCc3nc4ccccc4o3)nc21 [analog 22] | 1.7 ± 0.1 µM | ten-fold-enhanced inhibitory potential | 
13 | O=C(c1cccc([N+](=O)[O-])c1)n1c2ccc([N+](=O)[O-])cc2c2nnc(SCc3nc4ccccc4o3)nc21 [analog 25] | 21.2 ± 0.4 µM |  | 
14 | O=C(c1cc(O)cc(O)c1)n1c(CSc2nnc3c4cc([N+](=O)[O-])ccc4n(C(=O)c4cc(O)cc(O)c4)c3n2)nc2ccccc21 [analog 3] | 2.1 ± 0.1 µM |  | 
15 | COc1ccccc1C(=O)n1c(CSc2nnc3c4cc([N+](=O)[O-])ccc4n(C(=O)c4ccccc4OC)c3n2)nc2ccccc21 [analog 4] | 32.2 ± 0.3 µM |  | 
16 | O=C(c1c(O)cc(O)cc1O)n1c(CSc2nnc3c4cc([N+](=O)[O-])ccc4n(C(=O)c4c(O)cc(O)cc4O)c3n2)nc2ccccc21 [analog 8] | 0.2 ± 0.01 µM |  | 
17 | O=C(c1cccc(Cl)c1)n1c2ccc([N+](=O)[O-])cc2c2nnc(SCc3nc4ccccc4o3)nc21 [analog 17] | 22.2 ± 0.5 µM |  | 
18 | CN(C)c1ccc(C(=O)n2c(CSc3nnc4c5cc([N+](=O)[O-])ccc5n(C(=O)c5ccc(N(C)C)cc5)c4n3)nc3ccccc32)cc1 [analog 9] | 31.1 ± 0.3 µM |  | 
19 | O=C(c1ccc(Cl)cc1)n1c2ccc([N+](=O)[O-])cc2c2nnc(SCc3nc4ccccc4o3)nc21 [analog 13] | 9.7 ± 0.2 µM |  | 
20 | Cc1ccccc1C(=O)n1c2ccc([N+](=O)[O-])cc2c2nnc(SCc3nc4ccccc4o3)nc21 [analog 15] | 36.2 ± 0.7 µM |  | 
21 | O=C(c1ccccc1O)n1c2ccc([N+](=O)[O-])cc2c2nnc(SCc3nc4ccccc4o3)nc21 [analog 18] | 3.8 ± 0.1 µM |  | 
22 | COC(=O)c1ccc(C(=O)n2c3ccc([N+](=O)[O-])cc3c3nnc(SCc4nc5ccccc5o4)nc32)cc1 [analog 14] | 23.9 ± 0.5 µM |  | 
23 | O=C(c1ccccc1[N+](=O)[O-])n1c(CSc2nnc3c4cc([N+](=O)[O-])ccc4n(C(=O)c4ccccc4[N+](=O)[O-])c3n2)nc2ccccc21 [analog 10] | 19.3 ± 0.4 µM |  | 
24 | NC(N)=S [Standard Thiourea, thiourea, reference compound] |  |  | 21.9 ± 0.4 µM
25 | O=C(c1cccc([N+](=O)[O-])c1)n1c(CSc2nnc3c4cc([N+](=O)[O-])ccc4n(C(=O)c4cccc([N+](=O)[O-])c4)c3n2)nc2ccccc21 [analog 11] | 26.6 ± 0.5 µM |  | 
26 | O=C(c1ccccc1F)n1c2ccc([N+](=O)[O-])cc2c2nnc(SCc3nc4ccccc4o3)nc21 [analog 23] | 1.1 ± 0.01 µM | ten-fold-enhanced inhibitory potential | 
